According to the supplement of paper PMC11451515:

System: SEM cells
Experiment: cell viability relative to DMSO control; higher = less cytotoxic
Settings: 48 h
In short: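 Viability is a per-plate percentage relative to DMSO wells, with cell-free wells as background. CellTiter-Glo One luminescence was read after 48 h at 37°C on 1536-well plates (5 μl) of NOMO1 or SEM (500 cells/well) or P12-Ichikawa (1000 cells/well) leukemia cells. The cells had been adapted for at least four passages in each medium and pin-dosed with library compounds in DMSO from 47 μM to 0.79 nM in 11 threefold steps.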

[1] = HPLM + 10% dialyzed FBS, 0.000781 µM
[2] = HPLM + 10% dialyzed FBS, 0.00234 µM
[3] = HPLM + 10% dialyzed FBS, 0.00702 µM
[4] = HPLM + 10% dialyzed FBS, 0.0211 µM
[5] = HPLM + 10% dialyzed FBS, 0.0632 µM
[6] = HPLM + 10% dialyzed FBS, 0.19 µM
[7] = HPLM + 10% dialyzed FBS, 0.569 µM
[8] = HPLM + 10% dialyzed FBS, 1.71 µM
[9] = HPLM + 10% dialyzed FBS, 5.12 µM
[10] = HPLM + 10% dialyzed FBS, 15.4 µM
[11] = HPLM + 10% dialyzed FBS, 46.1 µM
[12] = RPMI 5 mM glucose + 10% FBS, 0.000781 µM
[13] = RPMI 5 mM glucose + 10% FBS, 0.00234 µM
[14] = RPMI 5 mM glucose + 10% FBS, 0.00702 µM
[15] = RPMI 5 mM glucose + 10% FBS, 0.0211 µM
[16] = RPMI 5 mM glucose + 10% FBS, 0.0632 µM
[17] = RPMI 5 mM glucose + 10% FBS, 0.19 µM
[18] = RPMI 5 mM glucose + 10% FBS, 0.569 µM
[19] = RPMI 5 mM glucose + 10% FBS, 1.71 µM
[20] = RPMI 5 mM glucose + 10% FBS, 5.12 µM
[21] = RPMI 5 mM glucose + 10% FBS, 15.4 µM
[22] = RPMI 5 mM glucose + 10% FBS, 46.1 µM
[23] = RPMI 5 mM glucose + 10% dialyzed FBS, 0.000781 µM
[24] = RPMI 5 mM glucose + 10% dialyzed FBS, 0.00234 µM
[25] = RPMI 5 mM glucose + 10% dialyzed FBS, 0.00702 µM
[26] = RPMI 5 mM glucose + 10% dialyzed FBS, 0.0211 µM
[27] = RPMI 5 mM glucose + 10% dialyzed FBS, 0.0632 µM
[28] = RPMI 5 mM glucose + 10% dialyzed FBS, 0.19 µM
[29] = RPMI 5 mM glucose + 10% dialyzed FBS, 0.569 µM
[30] = RPMI 5 mM glucose + 10% dialyzed FBS, 1.71 µM
[31] = RPMI 5 mM glucose + 10% dialyzed FBS, 5.12 µM
[32] = RPMI 5 mM glucose + 10% dialyzed FBS, 15.4 µM
[33] = RPMI 5 mM glucose + 10% dialyzed FBS, 46.1 µM

SMILES	cell viability [1] [%]	cell viability [2] [%]	cell viability [3] [%]	cell viability [4] [%]	cell viability [5] [%]	cell viability [6] [%]	cell viability [7] [%]	cell viability [8] [%]	cell viability [9] [%]	cell viability [10] [%]	cell viability [11] [%]	cell viability [12] [%]	cell viability [13] [%]	cell viability [14] [%]	cell viability [15] [%]	cell viability [16] [%]	cell viability [17] [%]	cell viability [18] [%]	cell viability [19] [%]	cell viability [20] [%]	cell viability [21] [%]	cell viability [22] [%]	cell viability [23] [%]	cell viability [24] [%]	cell viability [25] [%]	cell viability [26] [%]	cell viability [27] [%]	cell viability [28] [%]	cell viability [29] [%]	cell viability [30] [%]	cell viability [31] [%]	cell viability [32] [%]	cell viability [33] [%]
Cc1ccnc2c1NC(=O)c1cccnc1N2C1CC1	63.6	84.2	97.9	101	95.8	97.2	106	107	91.8	102	111	83.7	85.2	84.6	85.4	96.7	96.8	90.9	101	99.4	105	99.6	90.8	86.6	94.5	90.1	90.1	89.7	93	90.4	105	101	93.6
C=C[C@H]1CN2CCC1C[C@@H]2C(O)c1ccnc2ccc(OC)cc12 (stereo partly specified)	118	146	116	22.4	131	115	121	111	126	113	111	67.5	77.6	104	11.3	99.7	96.1	82	77	94.6	84.6	63	121	123	138	23.6	129	121	112	127	131	132	97.5
O=P(O)(O)C(O)(Cn1ccnc1)P(=O)(O)O	73.9	94	19.2	101	106	101	107	106	104	109	99.1	95.8	102	10.2	110	120	116	123	110	123	120	114	100	89.7	22.5	92.7	114	104	102	117	120	116	121
C[C@]12CC[C@H]3[C@@H](CCC4=CC(=O)CC[C@@H]43)[C@@H]1CC[C@@H]2OC(=O)CCc1ccccc1	83.2	22.9	101	93.8	100	98.5	94.3	99.6	85.9	91.4	93.6	116	24.5	123	111	116	115	108	122	110	120	114	99.4	26.5	107	122	112	109	104	123	100	125	113
COc1ccc2c(c1)CN(C)CC2c1ccc(Cl)c(Cl)c1 (stereo unspecified)	78	104	121	102	122	109	133	117	126	117	58.7	95.5	112	140	108	136	136	131	123	128	125	74.5	89.2	109	133	104	138	168	157	150	143	141	109
CCCNC(=O)Nc1ccc(Oc2ncnc3cc(OC)c(OC)cc23)cc1Cl	101	93.5	108	104	102	101	89.8	98.1	81	80.4	47.6	118	125	125	146	117	104	103	98	88.2	92.1	57.7	94	109	104	113	90.7	98.5	92.8	78.9	73.3	75.5	41.7
C[C@@H](CN1CC(=O)NC(=O)C1)N1CC(=O)NC(=O)C1	86.3	103	102	96.6	70.9	32.1	17.2	12.8	10.5	5.86	4.47	93.6	99.3	98.2	67.1	72.1	17.1	9.93	8.96	7.24	4.49	3.85	75	101	92.6	82.5	61.1	18.6	8.07	8.83	7.97	4.17	3.08
COc1c(C)c2c(c(O)c1C/C=C(\C)CCC(=O)O)C(=O)OC2	92.9	104	104	111	113	100	120	111	97	61.2	33.3	102	105	114	109	113	102	118	98.2	77	48.1	29.9	102	104	115	81.9	114	108	100	116	108	64.8	45.6
COc1cc2c(cc1OC)CN(CCc1ccc(NC(=O)c3cc(OC)c(OC)cc3NC(=O)c3cnc4ccccc4c3)cc1)CC2	116	115	116	123	111	110	123	120	101	69	79.6												115	123	114	108	122	123	121	132	103	59.9	47.9
Cc1ccc([S+](=O)([O-])OCC(=O)Nc2ccc(C(=O)O)c(O)c2)cc1	101	97.1	127	118	125	106	125	132	136	137	80.5	107	109	124	122	138	130	150	142	153	81.9	11.9	99.7	103	134	131	123	140	125	147	144	109	43.7
Oc1nc(-c2ccc(C(F)(F)F)cc2)nc2c1CSCC2	90.6	95.7	107	50.8	110	106	97.4	97.8	91.1	84.3	79.6	101	102	92.6	39.7	113	107	113	111	114	95.6	86	97.9	96.6	105	47	105	114	111	98.3	93.6	82.6	85.2
C=CC(=O)Nc1cc2c(Nc3ccc(F)c(Cl)c3)ncnc2cc1OCCCN1CCOCC1	112	107	112	128	110	124	114	90.3	55	39.2	26.7	87.7	81.5	85.3	84	73.1	78.6	80.2	68.6	41.7	24.2	42.9	119	114	95.4	127	112	110	108	89	56.3	29.1	58.8
CCc1ccc(/C=C2/SC(=S)NC2=O)cc1	65.6	63.5	87.9	76.4	66.2	64.8	77.2	64.8	80.9	27.6	34.5	78	89.9	94	106	97	77.9	80	87.2	74.6	40.1	45.4	79.3	62.7	74	74.2	69.9	61	66.4	57.3	58.6	20.5	27
O=C(O)C(=O)c1cn(Cc2ccccc2)c2ccc(-c3ccc(OC(F)(F)F)cc3)cc12	102	126	116	117	107	108	109	110	122	46.2	97.5	119	106	104	103	98.7	102	95.2	108	97.3	45.1	88.1	110	94.6	102	99	98.6	84.2	116	89.1	101	30.4	84.2
CCCCOc1c(C(=O)c2c(F)cc(C)cc2F)cnc2[nH]ncc12	107	111	104	110	115	108	108	92	70.4	64.1	30.9	104	105	103	113	114	118	114	89.6	60.6	71.8	35.6	93.2	96.5	96.9	86.8	107	106	104	84.4	71.6	56.8	25.3
CC(C)(O)CC(=O)NCCn1ccc2ncnc(Nc3ccc(Oc4cccc(C(F)(F)F)c4)c(Cl)c3)c21	106	110	102	103	112	105	103	96.5	94.6	71.6	32.9												105	88	102	103	109	107	100	101	90.4	58.5	23.6
